Assay results from patent US20050215531A1, “Use of edg receptor binding agents in cancer” (priority 2002, published 2005).
Structures can show the parent of a compound that is named as a salt.

Assays:
[1] = tested on: human MDA-MB-435 breast tumors; assay: Combination with a VEGF-R protein tyrosin kinase inhibitor, MDA-MB-435 breast tumors in nude mice; format: in vivo; conditions: 2 weeks, Compound C HCl 2.5 mg/kg i.v. 5×/week, phthalazine succinate 100 mg/kg p.o. 5×/week, or both
Description: (§1) Antitumor activity is expressed as T/C% (mean increase in tumor volumes of treated animals divided by the mean increase of tumor volumes of control animals multiplied by 100).
Nude mice transplanted with human MDA-MB-435 breast tumors are treated for 2 weeks with a VEGF-R protein tyrosin kinase inhibitor, e.g. 1-(4-chloroanilino)-4-(4-pyridylmethyl)phthalazine succinate, at a dose of 100 mg/kg p.o. 5×/week, a S1P receptor agonist, e.g. Compound C (hydrochloride salt), at a dose of 2.5 mg/kg i.v. 5×/week, or a combination of both. Antitumor is expressed as T/C% as indicated above.

[2] = tested on: human A375 melanoma cells; assay: Combination with a VEGF-R protein tyrosin kinase inhibitor, A375 melanoma in nude mice; format: in vivo; conditions: treated in a similar way (same doses) alone or combined
[3] = tested on: human A375 melanoma cells; assay: In vivo antitumor activity, A375 melanoma transplanted into BALB/c-nu/nu mice
Description: as §1
Aliquots of cancer cells (1×10^7), e.g. human A375 melanoma cells, are transplanted into BALB/c-nu/nu mice. When the tumors have reached ca. 10×10 mm in size, the animals are assigned randomly to four subgroups and the treatment with a compound of formula I is initiated. Animals are sacrificed after 2 week treatment, at which times tumors and tissues are harvested and prepared for morphological and molecular analysis. The size of the tumors is determined with a caliper.

HUVEC [4] = assay: S1P-mediated HUVEC tube formation assay; format: cell-based, human; conditions: treatment alone; branching points in 3 independent fields at 4× magnification
Description: For the tube formation assay, HUVEC from passage 2-8 are used and are never greater than 70% confluent before harvesting. Cells are prepared for the assay by washing with Herpes Balanced Saline Solution (HBSS from Clonetics) and then trypsinizing with Trypsin/EDTA (0.25 mg/ml, from Clonetics). After approximately 90% of the cells have lifted off the plate, an equal volume of Trypsin Neutralizing Solution (TNS from Clonetics) is added and the cells are collected into a conical tube containing at least 10 ml of EBM-2 (Clonetics)+0.1% BSA (Sigma) media Cells are centrifuged at 1000 rpm for 5 minutes and the supematant is removed and replaced with 5 ml of fresh EBM-2+0.1% BSA. Cells are counted using a hemacytometer and the volume of the cell suspension is adjusted to achieve a concentration of 500,000 cells/ml. Conical tubes are prepared with test compounds at 100 nM, and pertussin toxin (PTx) at 10 ng/ml in each, then 1 ml of the cell suspension is added to each tube. Tubes are then incubated for ½ hour at 37° C., 5% CO2. The migration assay is performed using Fluoro-Blok 24-Multiwell insert Plates coated with fibronectin (8 μm pore size, Falcon #351147) instead of the individual inserts in a 24-well plate. Cells and test compounds are prepared and pre-incubated as described above, then 100 μl is added to each approriate well in the Insert Plate. 300 μl of the EBM-2+2% charcoastripped media without S1P is added to the bottoms of the wells marked for no stimulation (−), and 300 μl of the media containing S1P (500 nM) is added to the bottoms of the wells marked for stimulation (+). The plate is then incubated for 4 hours at 37° C., 5% CO2. […]
After incubation, the plate is read on a Cytofluor II at an excitation of 485 nm and emission of 530 nm. The Fluoro-Blok coating in the inserts allows only the cells that have migrated to the bottom to be counted. […]
Tube formation is quantitated by counting the number of branching points (two independent cords connecting) in 3 independent fields at 4× magnification.

tissue factor = assay: Clotting assay, tissue factor activity on HUVEC; format: cell-based, human; conditions: compound alone or in combinations, 0.5-2 μM, 4 hours
Description: (§2) Human umbilical vein endothelial cells (HUVEC) are cultured at 37° C. and 5% CO2 in medium M199 supplemented with 20% SCS (HyClone, Logan, Utah), 1 U/ml heparin, 50 μg/ml ECGS, 2 mM glutamine, 100 U/ml penicillin and 0.1 mg/ml streptomycin. Cells are used for experiments up to passage number 5. Short-starved HUVEC are obtained by starving with 1% SCS-containing M199 for 5 h. Recombinant human VEGF165 is obtained from PromoCell (Heidelberg, Germany). Phospho-specific ERK½, p3B kinase polyclonal antibodies, nonphospho ERK½ antibodies and LumiGLO chemiluminescent reagent are from New England BioLabs (Beverly, Mass.), polyclonal IKB antibodies from Santa Cruz Biotechnology (Santa Cruz, Calif.). Peroxidase-conjugated donkey anti-rabbit immunoglobulin G (IgG) and sheep anti-mouse IgG are purchased from Amersham LIFE SCIENCE (Amersham Place, England). lmmobilon-P transfer membranes are products of Millipore (Bedford, Mass.). S is obtained from Sigma Chemical Co.; S1P is from Biomol. Compound A-phosphate stock solution is prepared by the following protocol. Compound A-phosphate is dissolved in methanol tracing with concentrated HCl (0.5 mg Compound A-phosphate in 500 μl of methanol plus 2 μl of HCl). Solvent from the resulting solution is evaporated under vacuum and the residue obtained is redissolved (variant 1) in 0.1% of defatted BSA solution in sterile deionized water (500 μl) or (variant 2) in 0.5% Triton X-100 in deionized water. The resulting stock solutions (2.5 mM) are sonicated and stored at 4° C.
Cells are seeded in 6-well plates at 80-90% confluency and grown overnight. Cells are scraped from the plates and analyzed for tissue factor activity according to the method as described in Clauss, M., J. Biol. Chem. 271,17629-17634 (1996), Mechtcheriakova, D., Blood 93,3811-3823 (1999). Briefly, after induction for 4 hours with VEGF (1.5 nM), TNF-α (100 U/ml), S (0.5-2 μM), S1P (0.5-2 μM), Compound A (0.5-2 μM), and Compound A-phosphate (0.5-2 μM), cells are washed twice and then scraped in 1 ml clotting buffer (12 mM sodium acetate, 7 mM diethylbarbitate and 130 mM sodium chloride; pH 7.4). 50 μl of resuspended cells are mixed with 50 μl of citrated plasma, and clotting times are determined after recalcfication with 50 μl of 20 mM CaCl2 solution at 37° C. TF-equivalents are determined by using a standard curve obtained from rabbit brain thromboplastin.
An important characteristic feature of both classical inflammatory stimulus TNF-α and the main angiogenic growth factor VEGF on endothellal cells is their potency to upregulate tissue factor. Compound A, Compound A-phosphate, S or S1P are tested whether they also do induce tissue factor on HUVEC. […] The data obtained together indicate that Compound A, Compound A-phosphate, S and S1P mechanistically work distinctly to anglogenic VEGF and inflammatory TNF-α.

HUVEC [5] = assay: In vitro angiogenesis (tube formation) assay on Matrigel; format: cell-based, human; conditions: for effect on VEGF-triggered tube formation: high concentrations, 2-5 μM
Description: as §2
Morphogenesis of endothelial cells into capillary-like structures on Growth Factor Reduced Matrigel Matrix (BD Bioscience) is performed according to the manufacture procedure. Briefly, HUVEC are trypsinized, resuspended in serum-free Ml 99 medium containing soybean trypsin inhibitor (1 mg/ml, Sigma). After centrifugation cells are resuspended in serum-free medium at a density 0.5×10^5 cells/ml, and cell suspension is seeded in 96-well cell culture plates (Costar, Corning Incorporated) precoated with 50 μl of Matrigel in the absence or presence of various stimuli: VEGF at 1.5 nM, S1P at 0.1-2 μM, S at 0.5-2 μM, Compound A at 0.5-2 μM, and Compound A-phosphate at 0.1-2 μM. Eight hours later, cells on Matrigel are fixed with 3% formaldehyde in PBS and kept at 4° C. Results are quantitated from images made with a Nikon Diaphot microscope equipped with a cooled CCD camera (Kappa GmbH, Gleichen, Germany) by direct counting of branching points on two microscopic fields from each well done in duplicates.
The effect of Compound A and Compound A-phosphate on morphogenic differentiation of endothelial cells is determined using an in vitro angiogenesis assay on Matrigel. Endothelial cell morphogenesis is a complex process that requires cell-extracellular matrix interactions, followed by matrix remodelling, stimulated migration, cell-cell interactions, and perivascular proteolysis. […] This may be interpreted as a possible involvement of EDG-1 (S1P1) receptor-mediated signaling events in Compound A-phosphate-stimulated bioresponses (see e.g. FIG. 3). […] Importantly, high concentrations of S and Compound A (2-5 μM) inhibited VEGF-triggered tube formation.

ERK½ MAP kinases = assay: Western blot, activation of ERK½ MAP kinases in HUVEC; format: cell-based, human; conditions: endothelial cells, 5 minute to 60 minute treatment
Description: as §2
After various treatments, the cells are washed twice with cold PBS, lysed in 100 μl of Laemmli buffer, scraped and heated for 5 min at 95° C. Total cell lysates are separated by SDS-PAGE and transferred to Immobilon-P membrane. The membrane is blocked for 30 minutes with PBS containing 0.1% Tween-20 and 3% skim milk and incubated for 1 hour at RT with a primary antibody diluted in blocking buffer. The membrane obtained is washed three times for 5 minutes with PBS containing 0.1% Tween-20 and incubated with peroxidase-conjugated secondary antibody for 1 hour at RT. After a washing step, the membrane is incubated for 1 minute with ECL reagent and exposed to film as required. For reprobing with another antibody, the membrane is washed twice in PBS, stripped for 30 min at 55° C. with stripping buffer (62.5 mM Tris-HCL, pH 6.8, 2% SDS, 100 mM 2-mercaptoethanol) and washed three times for 5 minutes with PBS at RT. The membrane is stored wet wrapped in SaranWrap at 4° C. after each immunodetection.
Signal transduction via MAP idnases plays a key role in a variety of endothelial cell functions. Treatment of HUVEC with Compound A-phosphate at 0.5 μM may result in transient activation of ERK½ with a peak of phosphorylation/activation at 10 minutes and returning to baseline by 20 minutes (see e.g. FIG. 5). No activation of p38 kinase and JNK½ by Compound A-phosphate is detectable in HUVEC. […] To estimate the possible role of inflammatory/NFκB-dependent program in Compound A-phosphatestimulated bioresponses of endothelial cells, the membranes are reprobed with anti-IκB antibodies. IκB levels are not affected by Compound A-phosphate treatment.

Clc1ccc(Nc2nnc(Cc3ccncc3)c3ccccc23)cc1.O=C(O)CCC(=O)O [1-(4-chloroanilino)-4-(4-pyridylmethyl)phthalazine succinate, reference compound]
T/C% [1]: 91% | T/C% [2]: 44%

CCCCCCCOc1ccc(CCC(C)(N)CO)cc1 (stereo not shown) [Compound C, 2-amino-4-(4heptyloxyphenyl)-2-methyl-butanol]
tumor growth vs saline control ([3]; hydrochloride salt form, 0.5 to 5 mg/kg, 2 week treatment): slows tumor growth

CCCCCCCOc1ccc(CCC(C)(N)CO)cc1 (stereo not shown) [Compound C—HCl, 2-amino-4-(4heptyloxyphenyl)-2-methyl-butanol]
final T/C value ([3]; 2.5 mg/kg 5×/week): 30% | T/C% [1]: 66% | T/C% [2]: 35%

CCCCCCCCCCCCC/C=C/[C@@H](O)[C@@H](N)COP(=O)(O)O [Compound S1P, sphingosine-1-phosphate, reference compound]
Branching Points (HUVEC [4]): 42 ± 13 | tissue factor activity (tissue factor): none of these compounds alone or in combinations may elevate tissue factor activity

CCCCCCCCCCCCC/C=C/[C@@H](O)[C@@H](N)CO [S, sphingosine, reference compound]
effect on the VEGF-induced tube formation (HUVEC [5]; 1 μM): without having an inhibitory effect | effect on the ability of S1P and Compound A-phosphate to induce capillary-like structures (HUVEC [5]; 1 μM): attenuates | potency to induce capillary-like structures (HUVEC [5]; 1 μM, compared with S1P): less potent than S1P | effect on VEGF-triggered tube formation (HUVEC [5]): inhibited | effect on VEGF-triggered tube formation (HUVEC [5]; listed as sphingosine): inhibits | MAP kinase activation (ERK½ MAP kinases): Neither Compound A nor S are able to induce MAP kinase activation | tissue factor activity (tissue factor): none of these compounds alone or in combinations may elevate tissue factor activity

pertussis toxin [reference compound]
inhibition of Compound A-phosphate- and S1P-stimulated tube formation (HUVEC [5]; PTX 50 ng/ml): practically completely inhibited
